Results from patent publication US9708336B2, “Metallo-beta-lactamase inhibitors” (priority 2014, dated 2017).
Where two headings read alike, the source gives them in different places.

Legend:
[1] = test system: Klebsiella pneumoniae expressing VIM-1 (IHMA599644); experiment: Antibiotic potentiation activity: synergistic concentration (MITC95) with imipenem, OD600 growth; format: cell-based
How it was run: (§1)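 In 1.1× CAMHB, clinical isolates from overnight plates were challenged with test compound alongside imipenem at an assay concentration of 4 μg/ml, sometimes 1 μg/ml. Plates sat covered at 35 °C for 22–24 h prior to spectrophotometric reading.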

[2] = test system: Serratia marcescens expressing IMP-1 (CL5741); experiment: as above; format: cell-based
How it was run: as §1

[3] = test system: Escherichia coli expressing NDM-1 (CLB30016); experiment: as above; format: cell-based
How it was run: as §1

IMP-1 = IMP-1 (Serratia marcescens, UniProt P52699); experiment: biochemical; format: biochemical; conditions: read-out: IMP-1 IC50
Sequence of IMP-1 (P52699 whole entry, looked up): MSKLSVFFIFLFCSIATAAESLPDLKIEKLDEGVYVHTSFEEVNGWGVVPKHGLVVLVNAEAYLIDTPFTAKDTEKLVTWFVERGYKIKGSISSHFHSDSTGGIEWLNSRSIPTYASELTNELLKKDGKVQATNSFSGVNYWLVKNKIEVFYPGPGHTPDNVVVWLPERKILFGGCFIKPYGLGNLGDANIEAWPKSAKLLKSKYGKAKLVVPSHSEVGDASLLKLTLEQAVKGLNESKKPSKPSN

NDM-1 = NDM-1 (Klebsiella pneumoniae, UniProt C7C422); experiment: biochemical; format: biochemical
Sequence of NDM-1 (C7C422 whole entry, looked up, species assumed): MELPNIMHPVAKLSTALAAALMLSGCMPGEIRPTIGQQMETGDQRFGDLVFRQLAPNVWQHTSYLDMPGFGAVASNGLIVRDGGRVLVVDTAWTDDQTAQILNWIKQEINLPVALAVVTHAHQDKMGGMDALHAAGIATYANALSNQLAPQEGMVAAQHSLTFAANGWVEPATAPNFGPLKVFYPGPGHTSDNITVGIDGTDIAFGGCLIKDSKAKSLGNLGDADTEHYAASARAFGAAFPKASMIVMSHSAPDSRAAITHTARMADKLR

VIM-1 = VIM-1 (Pseudomonas aeruginosa (strain ATCC 15692 / DSM 22644 / CIP 104116 / JCM 14847 / LMG 12228 / 1C / PRS 101 / PAO1), UniProt A0A0F7KYQ8); experiment: Enzyme activity: determination of IC50, fluorescence assay with CCF2-FA substrate (VIM-1); format: biochemical
[4] = IHMA599644 (VIM-1), 95% inhibition of bacterial growth
[5] = CL5741 (IMP-1), 95% inhibition of bacterial growth
[6] = CLB30016 (NDM-1), 95% inhibition of bacterial growth
[7] = fluorescence assay with CCF2-FA substrate
[8] = fluorescence assay with CCF2-FA substrate, read-out: NDM-1 IC50
[9] = fluorescence assay with CCF2-FA substrate, read-out: VIM-1 IC50
[10] = Klebsiella pneumoniae IHMA599644 (VIM-1), 95% growth inhibition
[11] = Serratia marcescens CL5741 (IMP-1), 95% growth inhibition
[12] = (CLB30016, NDM-1), 95% growth inhibition
[13] = IMP-1 enzyme, CCF2-FA substrate
[14] = NDM-1 enzyme, CCF2-FA substrate, read-out: NDM-1 IC50
[15] = VIM-1 IC50, VIM-1 enzyme, CCF2-FA substrate
[16] = Klebsiella pneumoniae expressing VIM-1 (IHMA599644), 95% growth inhibition
[17] = Serratia marcescens expressing IMP-1 (CL5741), 95% growth inhibition
[18] = Escherichia coli expressing NDM-1 (CLB30016), 95% growth inhibition
[19] = IMP-1 enzyme, CCF2-FA fluorescence assay
[20] = NDM-1 enzyme, CCF2-FA fluorescence assay, read-out: NDM-1 IC50
[21] = VIM-1 enzyme, CCF2-FA substrate, read-out: VIM-1 IC50
[22] = concentration giving 95% inhibition of bacterial growth

| Structure (SMILES) | Klebsiella pneumoniae MITC95 [1, 10] | Serratia marcescens MITC95 [2, 11] | Escherichia coli MITC95 [3, 12] | IC50 (IMP-1; [13]) | IC50 (NDM-1; [14]) | IC50 (VIM-1; [21]) | also measured |
| --- | --- | --- | --- | --- | --- | --- | --- |
| NC1CC(N2CC(c3ccc(-c4ccc(C(F)(F)F)c(S(N)(=O)=O)c4-c4nnn[nH]4)cc3)C2)C1 (stereo not drawn) [Example 807, 4′-[1-(3-aminocyclobutyl)azetidin-3-yl]-2-(1H-tetrazol-5-yl)-4-(trifluuromethyl)biphenyl-3-sulfonamide] |  |  |  |  |  |  | Klebsiella pneumoniae MITC95 [1, 4]: 25 µM; Serratia marcescens MITC95 [2, 5]: 6.25 µM; Escherichia coli MITC95 [3, 6]: 1.563 µM; IC50 (IMP-1; [7]): 5.16 nM; IC50 (NDM-1; [8]): 3.97 nM; IC50 (VIM-1; [9]): 19.9 nM |
| NC1CCC(N[C@H]2CC[C@H](c3ccc(C(F)(F)F)c(S(N)(=O)=O)c3-c3nnn[nH]3)CC2)C1 (stereo partly drawn) [Example 703, 3-{4-[(3-aminocyclopentyl)amino]cyclohexyl}-2-(1H-tetrazol-5-yl)-6-(trifluoromethyl)benzene sulfonamide] | 12.5 µM | 3.125 µM | 0.3906 µM | 38 nM | 6.14 nM |  | IC50 (VIM-1; [15]): 8.38 nM |
| NS(=O)(=O)c1c(-c2ccc(C3CCNCC3)cc2)ccc(-c2ccc(C3CCNCC3)cc2)c1-c1nn[nH]n1 [Example 430, 3,6-bis[4-(4-piperidyl)phenyl]-2-(2H-tetrazol-5-yl)benzenesulfonamide] |  |  |  |  |  |  | Klebsiella pneumoniae MITC95 [1, 16]: 3.125 µM; Serratia marcescens MITC95 [2, 17]: 0.3906 µM; Escherichia coli MITC95 [3, 18]: 1.563 µM; IC50 (IMP-1; [19]): 6.38 nM; IC50 (NDM-1; [20]): 52.3 nM; IC50 (VIM-1; VIM-1 IC50, VIM-1 enzyme, CCF2-FA fluorescence assay): 50.8 nM |
| NC1(c2ccc(-c3ccc(C(F)(F)F)c(S(N)(=O)=O)c3-c3nnn[nH]3)cc2)CCOC1 (stereo not drawn) [Example 730, 4′-(3-aminotetrahydrofuran-3-yl)-2-(1H-tetrazol-5-yl)-4-(trifluoromethyl)biphenyl-3-sulfonamide] | 50 µM | 3.125 µM | 3.125 µM | 3.57 nM | 2.8 nM | 6 nM |  |
| NC(=O)CN1CCC(Cc2ccc(-c3ccc(C4CNC4)cc3)c(-c3nn[nH]n3)c2S(N)(=O)=O)CC1 [Example 609, 2-[4-[[4-[4-(azetidin-3-yl)phenyl]-2-sulfamoyl-3-(2H-tetrazol-5-yl)phenyl]methyl]-1-piperidyl]acetamide] | 3.125 µM | 12.5 µM | 6.25 µM | 83.9 nM | 21.3 nM | 1.64 nM |  |
| NS(=O)(=O)c1cccc(-c2ccc(N3CCC3CO)nc2)c1-c1nnn[nH]1 (stereo in doubt) [Example 636, 3-[6-[(2S)-2-(hydroxymethyl)azetidin-1-yl]-3-pyridyl]-2-(1H-tetrazol-5-yl)benzenesulfonamide] | >200 µM | 4.688 µM | 0.3906 µM | 37.2 nM | 1.54 nM |  | IC50 (VIM-1; [15]): 88.9 nM |
| NS(=O)(=O)c1c(C(F)(F)F)ccc(N2CCN(CCCO)CC2)c1-c1nnn[nH]1 [Example 664, 3-[4-(3-hydroxypropyl)piperazin-1-yl]-2-(1H-tetrazol-5-yl)-6-(trifluoromethyl)benzenesulfonamide] | 6.25 µM | 0.418 µM | 0.25 µM | 38.5 nM | 18.1 nM | 52 nM |  |
| N#Cc1ccccc1Cc1cccc(S(N)(=O)=O)c1-c1nnn[nH]1 [Example 166, 3-(2-cyanobenzyl)-2-(1H-tetrazol-5-yl)benzenesulfonamide] |  |  |  |  |  |  | Klebsiella pneumoniae expressing VIM-1 (IHMA 599644) MITC95 [1, 22]: 100 µM; Serratia marcescens expressing IMP-1 (CL5741) MITC95 [2, 22]: 3.906 µM; Escherichia coli expressing NDM-1 (CLB 30016) MITC95 [3, 22]: 2.344 µM; IC50 (IMP-1; [7]): 74.5 nM; IC50 (NDM-1; [8]): 6.89 nM; IC50 (VIM-1; [9]): 18.8 nM |
| NS(=O)(=O)c1c(C(F)(F)F)ccc([C@H]2CC[C@H](NC3CCNC3)CC2)c1-c1nnn[nH]1 (stereo partly drawn) [Example 696, 3-[4-(pyrrolidin-3-ylamino)cyclohexyl]-2-(1H-tetrazol-5-yl)-6-(trifluoromethyl)benzene sulfonamide] | 3.125 µM | 1.563 µM | 0.3906 µM | 5.26 nM | 1.09 nM | 2.38 nM |  |
| NC1(C2CCN(c3ccc(C(F)(F)F)c(S(N)(=O)=O)c3-c3nnn[nH]3)C2)CC1 (stereo not drawn) [Example 766, 3-[3-(1-aminocyclopropyl)pyrrolidin-1-yl]-2-(1H-tetrazol-5-yl)-6-(trifluoromethyl) benzenesulfonamide] |  |  |  |  |  |  | Klebsiella pneumoniae MITC95 [1, 4]: 12.5 µM; Serratia marcescens MITC95 [2, 5]: 25 µM; Escherichia coli MITC95 [3, 6]: 25 µM; IC50 (IMP-1; [7]): 120 nM; IC50 (NDM-1; [8]): 134 nM; IC50 (VIM-1; VIM-1 IC50, fluorescence assay with CCF2-FA substrate): 8.52 nM |
| Nc1ccc(-c2ccc(Br)c(S(N)(=O)=O)c2-c2nn[nH]n2)cn1 [Example 264, 3-(6-aminopyridin-3-yl)-6-bromo-2-(2H-tetrazol-5-yl)benzenesulfonamide] |  |  |  |  |  |  | Klebsiella pneumoniae MITC95 [1, 16]: 1.781 µM; Serratia marcescens MITC95 [2, 17]: 0.3828 µM; Escherichia coli MITC95 [3, 18]: 0.04688 µM; IC50 (IMP-1; [19]): 16.9 nM; IC50 (NDM-1; [20]): 4.61 nM; IC50 (VIM-1; VIM-1 enzyme, CCF2-FA fluorescence assay, read-out: VIM-1 IC50): 4.4 nM |
| NS(=O)(=O)c1c(C(F)(F)F)ccc([C@H]2CC[C@H](NC3CCNCC3)CC2)c1-c1nnn[nH]1 [Example 698, 3-[4-(piperidin-4-ylamino)cyclohexyl]-2-(1H-tetrazol-5-yl)-6-(trifluoromethyl)benzene sulfonamide] | 3.125 µM | 3.125 µM | 0.7813 µM | 29.6 nM | 10 nM | 6.52 nM |  |
| Nc1nc2cc(-c3ccc(CC4CNC4)c(S(N)(=O)=O)c3-c3nn[nH]n3)ccc2[nH]1 [Example 611, 3-(2-amino-3H-benzo[d]imidazol-5-yl)-6-(azetidin-3-ylmethyl)-2-(2H-tetrazol-5-yl)benzenesulfonamide] | 1.563 µM | 12.5 µM | 0.3906 µM | 344 nM | 17.7 nM | 20.1 nM |  |
| NS(=O)(=O)c1c(C(F)(F)F)ccc([C@H]2CC[C@@H](C3=NCCN3)CC2)c1-c1nnn[nH]1 [Example 505, 3-(cis 4-(4,5-dihydro-1H-imidazol-2-yl)cyclohexyl)-2-(1H-tetrazol-5-yl)-6-(trifluoromethyl)benzenesulfonamide] | 12.5 µM | 6.25 µM | 6.25 µM | 22.2 nM |  |  | IC50 (NDM-1): 9.54 nM; IC50 (VIM-1; [15]): 0.937 nM |
| NS(=O)(=O)c1c(C(F)(F)F)ccc([C@H]2CC[C@H](NCC3CCNCC3)CC2)c1-c1nnn[nH]1 [Example 680, 3-{4-[(piperidin-4-ylmethyl)amino]cyclohex-yl}-2-(1H-tetrazol-5-yl)-6-(trifluoromethyl)benzene sulfonamide] | 6.25 µM | 3.125 µM | 1.563 µM | 86.6 nM | 41.4 nM | 5.16 nM |  |
| NS(=O)(=O)c1cccc(-c2ccc(C3CCN(C[C@H]4CNCCO4)CC3)cc2)c1-c1nnn[nH]1 [Example 619] | 150 µM | 0.9766 µM | 0.7813 µM | 10.8 nM | 8.23 nM |  | IC50 (VIM-1; [15]): 388 nM |
